Reference: the supplement of paper PMC10307832

Legend:
Assay in all cases: relative viability (nuclei count vs DMSO), 5 days (fraction); higher = more cells survive
[1] = compound: Cn1c(=O)n(-c2ccc(C(C)(C)C#N)cc2)c2c3cc(-c4cnc5ccccc5c4)ccc3ncc21 [Dactolisib] + NC(=O)Nc1cc(-c2cccc(F)c2)sc1C(=O)N[C@H]1CCCNC1 [AZD7762] (partner 0.2 µM)
Procedure, shortened: (§1)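 Cells from lung cancer lines were seeded into 1536-well plates and, one day later, dosed by pin tool. Treatments were either a single drug or a fixed dose of an anchor drug with five library-drug doses (not always all listed) in √10 steps. After 5 days, nuclei were stained in a one-step fixation (final 0.05% Triton X-100, 1% formaldehyde, 1 ug/ml Hoechst) and counted on 4× images, and relative viability is the treated-to-vehicle nuclei ratio, as the median of duplicate plates.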

[2] = compound: C1CCC(CC1)N(CCNCCC2=C3C(=C(C=C2)O)NC(=O)CO3)C(=O)CCNCCC4=CC(=C(C=C4)Cl)Cl [AZ505] + CC(C)C[C@H](NC(=O)[C@H](Cc1ccccc1)NC(=O)c1cnccn1)B(O)O [Bortezomib] (partner 0.002 µM)
Procedure, shortened: as §1

[3] = compound: Cn1c(=O)n(-c2ccc(C(C)(C)C#N)cc2)c2c3cc(-c4cnc5ccccc5c4)ccc3ncc21 [Dactolisib] + N=C(N)NC(=N)NCCc1ccccc1 [Phenformin] (partner 250 µM)
Procedure, shortened: as §1

[4] = compound: C1CCC(CC1)N(CCNCCC2=C3C(=C(C=C2)O)NC(=O)CO3)C(=O)CCNCCC4=CC(=C(C=C4)Cl)Cl [AZ505] + O=C(CCCCCCC(=O)Nc1ccccc1)NO [Vorinostat] (partner 1 µM)
Procedure, shortened: as §1

Cell Line	relative viability ([1]; first compound 0.002 µM)	relative viability ([1]; first compound 0.006325 µM)	relative viability ([1]; first compound 0.02 µM)	relative viability ([1]; first compound 0.06325 µM)	relative viability ([1]; first compound 0.2 µM)	relative viability ([2]; first compound 0.08 µM)	relative viability ([2]; first compound 0.253 µM)	relative viability ([2]; first compound 0.8 µM)	relative viability ([2]; first compound 2.53 µM)	relative viability ([2]; first compound 8 µM)	relative viability ([3]; first compound 0.002 µM)	relative viability ([3]; first compound 0.006325 µM)	relative viability ([3]; first compound 0.02 µM)	relative viability ([3]; first compound 0.06325 µM)	relative viability ([3]; first compound 0.2 µM)	relative viability ([4]; first compound 0.08 µM)	relative viability ([4]; first compound 0.8 µM)	relative viability ([4]; first compound 2.53 µM)	relative viability ([4]; first compound 8 µM)	relative viability ([4]; first compound 0.253 µM)
ABC-1	0.925	0.805	0.738	0.761	0.557	0.31	0.281	0.303	0.313	0.256	0.246	0.244	0.24	0.231	0.199	1.07	0.976	1.14	1.14	–
NCI-H838	0.845	0.908	0.843	0.709	0.633	0.805	0.609	0.761	0.564	0.884	0.628	0.423	0.267	0.201	0.175	0.674	0.67	0.737	0.787	0.73
A-427	0.749	0.698	0.688	0.498	0.306	0.928	0.978	1.03	0.917	0.997	0.366	0.335	0.348	0.263	0.244	0.877	0.82	0.872	0.837	0.839
LCLC-97TM1	0.197	0.325	0.291	0.18	0.135	0.579	0.461	0.461	–	1.08	0.452	0.444	0.42	0.317	0.179	0.625	0.748	–	0.984	0.746
LCLC-103H	0.797	0.781	0.703	0.582	0.467	0.894	1.05	1.01	1.02	1.06	0.369	0.321	0.345	0.317	0.291	0.682	0.694	0.695	0.735	0.689
PC-3 [JPC-3]	0.841	0.788	0.685	0.666	0.353	0.735	0.768	0.684	0.775	0.771	0.494	0.485	0.475	0.47	0.469	0.821	0.786	0.934	1.09	–
BEN	0.781	0.645	0.547	0.588	0.41	0.744	0.806	0.809	0.861	0.842	0.231	0.263	0.245	0.248	0.237	0.494	0.54	0.592	0.591	0.603
NCI-H1666	0.81	0.98	0.807	0.727	0.656	0.799	0.708	0.658	0.778	0.705	0.593	0.53	0.577	0.544	0.559	1.01	0.962	1.03	1.12	1.01
LC-2-ad	0.812	0.816	0.86	0.71	0.593	1	1.04	0.915	1.01	1.03	0.601	0.572	0.539	0.42	0.391	0.657	0.689	0.708	0.772	0.712
ChaGo-K-1	0.913	0.845	0.811	0.877	0.814	0.945	0.91	1.04	1	1.13	0.457	0.457	0.464	0.374	0.444	0.695	0.816	0.682	0.775	0.758
NCI-H1975	0.659	0.695	0.63	0.488	0.388	0.333	0.41	0.335	0.327	0.356	0.435	0.382	0.376	0.216	0.162	0.632	0.625	0.592	0.666	0.61
NCI-H1993	0.735	0.507	0.53	0.335	0.387	0.894	1.09	0.937	1.25	1.04	0.486	0.509	0.518	0.5	0.572	0.689	0.994	0.884	0.977	0.741
RERF-LC-KJ	1.02	0.922	0.818	0.572	0.489	1.02	1.02	1.18	1.09	1.12	0.42	0.415	0.428	0.298	0.302	0.616	0.564	0.672	0.669	0.689
NCI-H23	0.241	0.232	0.309	0.19	0.101	0.674	–	1.21	0.956	1.07	0.807	0.795	0.736	0.359	0.316	0.526	0.561	0.81	0.627	0.582
HCC-366	0.198	0.27	0.238	0.203	0.0362	0.933	1.01	1.02	0.952	1.11	0.602	0.625	0.587	0.397	0.151	0.356	0.344	0.354	0.377	0.393
EMC-BAC-2	1.14	0.955	0.984	0.662	0.607	0.988	1.03	0.972	1.01	1.1	0.51	0.529	0.519	0.336	0.251	0.486	0.512	0.547	0.722	–
NCI-H2405	0.773	0.768	0.674	0.48	0.253	0.733	0.802	0.81	0.859	0.925	0.403	0.379	0.374	0.269	0.256	0.811	0.823	0.856	0.863	–
EPLC-272H	0.218	0.273	0.249	0.165	0.148	0.769	1.04	0.85	0.721	0.904	0.351	0.25	0.268	0.228	0.259	0.443	0.413	0.52	0.398	0.516
NCI-H1915	0.654	0.67	0.696	0.664	0.597	0.86	0.968	0.861	0.87	0.978	0.376	0.387	0.391	0.344	0.327	0.469	0.508	0.472	0.495	0.66
NCI-H596	1.21	1.03	0.946	0.774	0.396	0.963	0.847	0.756	1.19	1.03	0.738	0.767	0.627	0.468	0.372	0.549	0.577	0.612	0.521	–
NCI-H322M	0.524	0.547	0.424	0.425	0.408	1.29	1.15	1.39	1.22	1.34	0.822	0.745	0.713	0.617	0.485	0.824	0.888	0.837	0.882	–
NCI-H647	0.36	0.337	0.276	0.159	0.111	1.07	1.13	1	1.19	1.01	0.536	0.449	0.429	0.156	0.105	0.446	0.529	0.583	1.06	0.747
NCI-H2085	0.984	0.9	0.877	0.731	0.281	0.958	1.01	0.934	1.05	1.1	0.839	0.689	0.524	0.348	0.281	0.732	0.675	0.802	0.823	0.721
NCI-H727	–	0.519	0.468	0.47	0.45	0.728	0.708	0.767	0.747	0.934	0.653	0.588	0.528	0.359	0.309	1.11	1.2	1.11	1.3	1.07
NCI-H441	1.04	1.28	1.18	0.764	0.449	0.751	0.636	0.598	0.432	0.621	1.28	0.737	0.812	0.337	0.289	0.786	0.735	0.782	0.876	0.881
LOU-NH91	0.753	0.734	0.69	0.575	0.533	0.46	0.508	0.536	0.527	0.453	0.625	0.731	0.642	0.437	0.447	0.837	0.91	0.856	0.908	0.855
NCI-H3122	0.971	0.892	1	0.953	0.488	1.01	1.02	1.07	1.04	1.03	0.381	0.385	0.416	0.378	0.317	0.807	1.03	0.992	1.01	1.02
